ChEMBL document CHEMBL1201862, “PubChem BioAssay data set” (2004)
Active and inactive are the calls of the source.

How the values were obtained:
[1] = target: T1, Acyl-homoserine lactone acylase PvdQ (Pseudomonas aeruginosa (strain LESB58), UniProt Q9I194); assay: P. aeruginosa PvdQ acylase inhibitors, dose response, biochemical, fluorescence, plate reader and imaging, cherry-picks (AID 493231)
T1 sequence (Q9I194 whole entry): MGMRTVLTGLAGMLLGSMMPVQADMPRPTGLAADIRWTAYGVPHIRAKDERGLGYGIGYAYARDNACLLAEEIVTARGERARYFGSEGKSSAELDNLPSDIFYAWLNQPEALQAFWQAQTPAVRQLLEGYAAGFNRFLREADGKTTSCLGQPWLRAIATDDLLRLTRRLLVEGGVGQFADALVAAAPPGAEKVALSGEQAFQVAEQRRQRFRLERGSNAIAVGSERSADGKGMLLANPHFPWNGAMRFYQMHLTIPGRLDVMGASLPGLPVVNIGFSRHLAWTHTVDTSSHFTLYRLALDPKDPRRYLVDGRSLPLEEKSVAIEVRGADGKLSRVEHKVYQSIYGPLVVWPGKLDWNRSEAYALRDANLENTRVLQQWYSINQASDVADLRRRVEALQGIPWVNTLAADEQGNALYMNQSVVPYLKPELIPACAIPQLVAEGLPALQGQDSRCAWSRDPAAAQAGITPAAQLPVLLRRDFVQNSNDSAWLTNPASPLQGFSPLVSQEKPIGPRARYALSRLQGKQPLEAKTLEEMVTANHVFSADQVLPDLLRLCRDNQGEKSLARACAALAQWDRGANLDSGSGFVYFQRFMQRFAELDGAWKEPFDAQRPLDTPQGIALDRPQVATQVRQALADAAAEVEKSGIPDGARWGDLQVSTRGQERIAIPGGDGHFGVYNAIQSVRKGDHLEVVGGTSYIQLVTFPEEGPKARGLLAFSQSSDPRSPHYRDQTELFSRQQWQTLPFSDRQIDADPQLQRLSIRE

CAAX prenyl protease 2 = target: T2, CAAX prenyl protease 2 (Saccharomyces cerevisiae S288c, UniProt Q03530); type: biochemical
T2 sequence (Q03530 whole entry): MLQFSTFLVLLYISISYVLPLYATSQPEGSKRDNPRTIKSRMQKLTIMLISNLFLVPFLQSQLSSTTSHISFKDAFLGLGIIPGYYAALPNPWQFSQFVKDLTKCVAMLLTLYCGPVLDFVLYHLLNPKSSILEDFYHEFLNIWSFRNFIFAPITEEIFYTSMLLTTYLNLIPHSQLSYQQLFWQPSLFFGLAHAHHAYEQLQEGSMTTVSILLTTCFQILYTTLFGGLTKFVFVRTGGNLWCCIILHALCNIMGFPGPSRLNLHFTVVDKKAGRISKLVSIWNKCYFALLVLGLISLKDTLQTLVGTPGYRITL

[2] = target: Peroxisome proliferator-activated receptor gamma/Nuclear receptor coactivator 2 (Homo sapiens, UniProt P37231); assay: (§1) TR-FRET dose response biochemical High Throughput Screening assay for agonists of the steroid receptor coactivator 2 (SRC-2) recruitment by the peroxisome proliferator-activated receptor gamma (PPAR gamma): non-selective agonists. [Related pubchem assays: 1297, 1032 ]; type: functional
[3] = target: Peroxisome proliferator-activated receptor gamma/Nuclear receptor coactivator 1 (Homo sapiens, UniProt P37231); assay: as §1, with “1 (SRC-1)” for “2 (SRC-2)”, “assays (depositor defined):AID1300, AID1808, AID504735, AID631]” for “assays: 1297, 1032 ]”; type: protein assay
[4] = target: Peroxisome proliferator-activated receptor gamma/Nuclear receptor coactivator 3 (Homo sapiens, UniProt P37231); assay: as §1, with “3 (SRC-3)” for “2 (SRC-2)”, “1301 (Confirmation screen.), 1048 (Primary screen.)]” for “1297, 1032 ]”; type: functional
HEK293 [5] = assay: cells; type: functional, cell-based; conditions: Homo sapiens
HEK293 [6] = assay: cells; type: functional, cell-based; conditions: Homo sapiens; remark: listed apart in the source
[7] = target: Nucleotide-binding oligomerization domain-containing protein 2 (Homo sapiens, UniProt Q9HC29); assay: NOD2 signaling inhibitors, cell-based, luminescence, uHTS, HEK293 (AID 1566); type: functional
HEK293 [8] = assay: NOD2 signaling inhibitors in MDP-stimulated cells, cell-based, uHTS, luminescence (AID 2001); type: functional; conditions: Homo sapiens
HEK293 [9] = assay: NOD1 signaling inhibitors, primary screen, cell-based, luminescence, uHTS (AID 1578); type: functional; conditions: Homo sapiens
HEK293 [10] = assay: cells; type: functional, cell-based; conditions: Homo sapiens; remark: listed apart in the source

Sequence of Nucleotide-binding oligomerization domain-containing protein 2 (Q9HC29 whole entry, the tested form may be a part): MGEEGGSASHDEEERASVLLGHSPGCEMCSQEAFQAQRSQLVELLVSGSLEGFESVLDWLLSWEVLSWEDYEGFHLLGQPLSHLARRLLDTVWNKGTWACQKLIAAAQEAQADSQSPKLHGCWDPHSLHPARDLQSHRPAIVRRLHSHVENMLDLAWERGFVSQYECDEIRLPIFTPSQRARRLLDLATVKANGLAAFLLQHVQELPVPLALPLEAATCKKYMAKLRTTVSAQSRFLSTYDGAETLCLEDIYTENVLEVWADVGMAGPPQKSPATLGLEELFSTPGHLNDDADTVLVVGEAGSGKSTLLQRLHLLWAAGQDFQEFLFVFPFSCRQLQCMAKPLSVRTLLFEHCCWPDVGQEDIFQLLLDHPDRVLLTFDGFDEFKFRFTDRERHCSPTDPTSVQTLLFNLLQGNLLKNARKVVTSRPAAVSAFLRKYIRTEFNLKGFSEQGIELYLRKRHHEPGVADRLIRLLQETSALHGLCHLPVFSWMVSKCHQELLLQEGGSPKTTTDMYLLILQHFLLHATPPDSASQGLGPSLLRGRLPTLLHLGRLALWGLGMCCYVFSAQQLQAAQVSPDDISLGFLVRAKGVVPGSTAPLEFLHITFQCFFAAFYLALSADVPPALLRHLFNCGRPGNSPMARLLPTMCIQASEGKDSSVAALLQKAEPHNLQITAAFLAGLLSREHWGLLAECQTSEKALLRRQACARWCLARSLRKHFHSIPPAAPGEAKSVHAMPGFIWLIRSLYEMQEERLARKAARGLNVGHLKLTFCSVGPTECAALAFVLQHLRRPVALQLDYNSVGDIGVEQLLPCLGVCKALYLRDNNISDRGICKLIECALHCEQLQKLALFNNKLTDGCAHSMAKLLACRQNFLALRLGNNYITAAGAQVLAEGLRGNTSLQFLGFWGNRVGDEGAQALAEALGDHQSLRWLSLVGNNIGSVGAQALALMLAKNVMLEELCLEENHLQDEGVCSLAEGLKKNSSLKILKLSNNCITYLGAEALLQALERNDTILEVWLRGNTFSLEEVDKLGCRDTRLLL
Sequence of Peroxisome proliferator-activated receptor gamma/Nuclear receptor coactivator 1 (P37231 whole entry): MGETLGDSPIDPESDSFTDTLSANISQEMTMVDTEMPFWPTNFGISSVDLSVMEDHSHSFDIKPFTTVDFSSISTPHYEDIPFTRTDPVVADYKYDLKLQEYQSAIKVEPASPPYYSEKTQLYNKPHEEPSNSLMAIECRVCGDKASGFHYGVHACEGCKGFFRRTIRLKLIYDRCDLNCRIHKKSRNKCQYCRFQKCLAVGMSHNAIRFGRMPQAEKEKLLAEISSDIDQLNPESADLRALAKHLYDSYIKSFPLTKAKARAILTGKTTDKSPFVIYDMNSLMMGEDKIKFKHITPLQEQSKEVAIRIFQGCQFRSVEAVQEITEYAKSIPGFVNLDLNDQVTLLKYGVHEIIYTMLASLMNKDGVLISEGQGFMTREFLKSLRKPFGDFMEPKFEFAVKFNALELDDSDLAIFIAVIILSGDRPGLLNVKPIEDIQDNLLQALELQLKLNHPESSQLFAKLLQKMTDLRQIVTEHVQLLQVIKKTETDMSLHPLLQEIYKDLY
Sequence of Peroxisome proliferator-activated receptor gamma/Nuclear receptor coactivator 1 (Q15788 whole entry, further chain): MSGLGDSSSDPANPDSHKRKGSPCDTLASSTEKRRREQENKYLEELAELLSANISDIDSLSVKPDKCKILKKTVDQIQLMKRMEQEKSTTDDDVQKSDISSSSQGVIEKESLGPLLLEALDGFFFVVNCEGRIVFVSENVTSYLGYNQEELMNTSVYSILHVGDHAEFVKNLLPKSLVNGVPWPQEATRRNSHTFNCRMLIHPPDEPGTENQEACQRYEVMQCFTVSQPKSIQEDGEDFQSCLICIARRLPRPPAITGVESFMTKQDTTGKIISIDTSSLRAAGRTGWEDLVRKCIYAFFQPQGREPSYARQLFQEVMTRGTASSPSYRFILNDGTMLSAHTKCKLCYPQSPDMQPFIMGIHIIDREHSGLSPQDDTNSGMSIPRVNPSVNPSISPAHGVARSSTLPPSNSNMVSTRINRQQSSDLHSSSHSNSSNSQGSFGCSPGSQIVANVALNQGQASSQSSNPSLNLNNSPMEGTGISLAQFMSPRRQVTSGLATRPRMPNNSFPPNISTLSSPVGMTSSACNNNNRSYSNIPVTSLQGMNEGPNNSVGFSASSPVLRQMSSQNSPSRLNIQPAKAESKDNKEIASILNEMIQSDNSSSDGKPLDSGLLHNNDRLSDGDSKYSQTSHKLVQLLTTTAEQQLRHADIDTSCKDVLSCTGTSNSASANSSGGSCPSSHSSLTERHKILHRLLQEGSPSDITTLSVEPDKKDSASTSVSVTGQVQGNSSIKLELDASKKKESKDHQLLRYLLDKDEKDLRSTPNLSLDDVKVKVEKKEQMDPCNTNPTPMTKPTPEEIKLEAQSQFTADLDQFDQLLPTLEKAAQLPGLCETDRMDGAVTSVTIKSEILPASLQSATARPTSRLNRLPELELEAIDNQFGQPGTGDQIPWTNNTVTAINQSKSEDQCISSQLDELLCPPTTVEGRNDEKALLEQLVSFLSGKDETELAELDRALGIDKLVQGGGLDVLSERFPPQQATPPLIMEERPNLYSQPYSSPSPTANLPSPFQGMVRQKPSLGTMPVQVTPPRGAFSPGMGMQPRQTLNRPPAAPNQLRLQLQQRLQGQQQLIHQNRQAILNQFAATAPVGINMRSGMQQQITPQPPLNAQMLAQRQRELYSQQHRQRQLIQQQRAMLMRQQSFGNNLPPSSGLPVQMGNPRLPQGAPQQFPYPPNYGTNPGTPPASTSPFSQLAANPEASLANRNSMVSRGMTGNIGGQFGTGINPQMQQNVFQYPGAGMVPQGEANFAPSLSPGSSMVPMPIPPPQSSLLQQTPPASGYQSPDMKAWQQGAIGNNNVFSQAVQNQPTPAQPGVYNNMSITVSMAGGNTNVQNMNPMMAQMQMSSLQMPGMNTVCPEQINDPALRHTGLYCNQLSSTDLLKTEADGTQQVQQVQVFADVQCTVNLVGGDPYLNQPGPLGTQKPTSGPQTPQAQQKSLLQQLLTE
Sequence of Peroxisome proliferator-activated receptor gamma/Nuclear receptor coactivator 3 (P37231 whole entry): as the sequence (P37231 whole entry) above
Sequence of Peroxisome proliferator-activated receptor gamma/Nuclear receptor coactivator 3 (Q9Y6Q9 whole entry, further chain): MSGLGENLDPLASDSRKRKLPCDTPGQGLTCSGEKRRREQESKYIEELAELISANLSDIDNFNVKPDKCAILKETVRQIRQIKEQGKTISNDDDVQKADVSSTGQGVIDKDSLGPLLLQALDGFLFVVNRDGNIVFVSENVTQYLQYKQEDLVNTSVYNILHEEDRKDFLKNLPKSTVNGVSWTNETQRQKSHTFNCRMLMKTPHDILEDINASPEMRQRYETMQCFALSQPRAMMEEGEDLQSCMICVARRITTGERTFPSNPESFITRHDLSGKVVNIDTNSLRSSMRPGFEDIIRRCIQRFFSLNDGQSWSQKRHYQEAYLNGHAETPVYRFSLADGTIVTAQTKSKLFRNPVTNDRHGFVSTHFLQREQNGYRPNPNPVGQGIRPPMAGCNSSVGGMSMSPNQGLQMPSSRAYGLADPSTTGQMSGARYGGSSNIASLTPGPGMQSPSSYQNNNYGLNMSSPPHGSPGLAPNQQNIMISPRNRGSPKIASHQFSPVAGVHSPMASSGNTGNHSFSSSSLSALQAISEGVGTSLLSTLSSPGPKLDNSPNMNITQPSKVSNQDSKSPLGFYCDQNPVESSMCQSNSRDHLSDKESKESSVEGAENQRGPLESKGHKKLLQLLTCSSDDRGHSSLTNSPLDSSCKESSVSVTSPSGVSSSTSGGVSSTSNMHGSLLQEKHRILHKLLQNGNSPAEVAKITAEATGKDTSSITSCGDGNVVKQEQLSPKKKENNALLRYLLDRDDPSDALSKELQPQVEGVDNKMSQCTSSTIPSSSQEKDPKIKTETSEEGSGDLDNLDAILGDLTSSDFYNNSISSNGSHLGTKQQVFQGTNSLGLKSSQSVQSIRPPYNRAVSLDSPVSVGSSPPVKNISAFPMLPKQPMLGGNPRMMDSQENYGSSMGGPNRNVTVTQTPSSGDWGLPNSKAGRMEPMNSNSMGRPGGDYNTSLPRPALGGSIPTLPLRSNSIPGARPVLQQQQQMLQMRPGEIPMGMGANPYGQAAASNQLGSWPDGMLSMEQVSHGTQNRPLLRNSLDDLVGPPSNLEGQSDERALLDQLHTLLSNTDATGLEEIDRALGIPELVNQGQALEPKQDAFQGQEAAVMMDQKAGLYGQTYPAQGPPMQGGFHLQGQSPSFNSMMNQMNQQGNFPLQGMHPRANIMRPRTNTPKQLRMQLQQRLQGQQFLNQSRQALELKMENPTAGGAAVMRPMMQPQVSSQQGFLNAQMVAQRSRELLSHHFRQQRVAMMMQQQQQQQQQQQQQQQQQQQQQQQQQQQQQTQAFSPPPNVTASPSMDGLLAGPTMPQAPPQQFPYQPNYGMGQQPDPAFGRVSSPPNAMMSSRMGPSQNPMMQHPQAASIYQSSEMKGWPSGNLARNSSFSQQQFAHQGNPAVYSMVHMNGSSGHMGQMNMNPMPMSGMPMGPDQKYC

`CCOC(=O)c1ccc(-c2ccc(CO)o2)cc1` was tested, and the AC50 [1] was 11.6 µM (active).
For `COc1cccc(-c2c(C(=O)N/N=C/c3sccc3C)nnn2-c2nonc2N)c1`, the AC50 (CAAX prenyl protease 2) was 7.8 µM (active).
`Cc1ccc2nc(NC(=O)CSc3ncnc4c3oc3ccccc34)sc2c1` was tested, and the EC50 [2] was > 79.4 µM (not active), the EC50 [3] was > 79.4 µM (inactive) and the EC50 [4] was > 79.4 µM (not active).
For `CCc1c(C)nc2ccc(Br)cc2c1SCCC#N`, the IC50 (HEK293 [5]) was > 20 µM (inactive), the IC50 (HEK293 [6]) was 1.29 µM (active) and the EC50 [7] was 3.84 µM (active). For the same molecule, the IC50 (HEK293 [8]) was 1.74 µM (active), the EC50 (HEK293 [9]) was 3.05 µM (active) and the IC50 (HEK293 [10]) was > 20 µM (inactive).
In the case of `Cc1ccc2scc(CN3CCCC3)c2c1`, the AC50 [1] is reported as 5.66 µM (active).
